Legend:
[1] = system: Botrytis cinerea; assay: In vitro test for ED50 values, liquid culture, Botrytis cinerea; format: cell-based; conditions: inhibition of spore germination and mycelium growth, 4 to 7 days incubation
From the text: (§1) Example E: In Vitro Test for the Calculation of ED50-Values; Comparison of Compounds According to the Invention Vs. Compounds Encompassed by WO 2010/146116 A1
(§2) • Solvent: DMSO • Culture medium: 14.6 g anhydrous D-glucose (VWR), 7.1 g Mycological Peptone (Oxoid), 1.4 g granulated Yeast Extract (Merck) per 1 liter water • Inoculum: spore suspension
(§3) Fungicides were solubilized in DMSO and the resulting solutions used to prepare test solutions of different fungicide concentrations in the required range. The final concentration of DMSO used in the assay was <1% by volume.
(§4) A spore suspension was prepared and diluted to the desired spore density.
(§5) Fungicides were evaluated for their ability to inhibit spore germination and mycelium growth in liquid culture assay. The compounds were added in the desired concentration to the culture medium with spores. After 4 to 7 days incubation, fungi-toxicity of compounds was determined by spectrometric measurement of mycelium growth. Inhibition of fungal growth was determined by comparing the absorbance values in wells containing the fungicides with the absorbance in control wells without fungicides.

[2] = system: Septoria tritici; assay: In vitro test for ED50 values, liquid culture, Septoria tritici; format: cell-based; conditions: inhibition of spore germination and mycelium growth, 4 to 7 days incubation
From the text: as §1, §2, §3, §4, §5

[3] = system: Pyricularia oryzae; format: cell-based; conditions: inhibition of spore germination and mycelium growth, liquid culture, 4 to 7 days incubation
[4] = system: Alternaria alternata; assay: In vitro test for ED50 values, liquid culture, Alternaria alternata; format: cell-based; conditions: inhibition of spore germination and mycelium growth, 4 to 7 days incubation
From the text: as §1, §2, §3, §4, §5

[5] = system: Septoria tritici; conditions: 500 ppm of active ingredient; preventive spray on young wheat plants; evaluated 24 days after inoculation
Description: (§6) • Solvent: 5% by volume of Dimethyl sulfoxide • 10% by volume of Acetone • Emulsifier: 1 μl of Tween® 80 per mg of active ingredient
(§7) The active ingredients are made soluble and homogenized in a mixture of Dimethyl sulfoxide/Acetone/Tween® 80 and then diluted in water to the desired concentration.
(§8) Control plants are treated only with an aqueous solution of Acetone/Dimethyl sulfoxide/Tween® 80.
After 24 hours, the plants are contaminated by spraying the leaves with an aqueous suspension of Septoria tritici spores. The contaminated wheat plants are incubated for 72 hours at 18° C. and at 100% relative humidity and then for 21 days at 20° C. and at 90% relative humidity.
The test is evaluated 24 days after the inoculation.

[6] = physchem; conditions: reversed phase HPLC column
From the text: Calibration was done with straight-chain alkan2-ones (with 3 to 16 carbon atoms) with known Log P values (measurement of Log P values using retention times with linear interpolation between successive alkanones).

[7] = system: Puccinia recondita; conditions: 500 ppm of active ingredient; preventive spray on young wheat plants; evaluated 11 days after inoculation
Description: Example A: In Vivo Preventive Test on Puccinia recondita (Brown Rust on Wheat)
as §6, §7, §8
After 24 hours, the plants are contaminated by spraying the leaves with an aqueous suspension of Puccinia recondita spores. The contaminated wheat plants are incubated for 24 hours at 20° C. and at 100% relative humidity and then for 10 days at 20° C. and at 70-80% relative humidity.
(§9) The test is evaluated 11 days after the inoculation.

[8] = system: Uromyces appendiculatus; conditions: 500 ppm of active ingredient; preventive spray on young bean plants; evaluated 11 days after inoculation
Description: as §6, §7, §8
After 24 hours, the plants are contaminated by spraying the leaves with an aqueous suspension of Uromyces appendiculatus spores. The contaminated bean plants are incubated for 24 hours at 20° C. and at 100% relative humidity and then for 10 days at 20° C. and at 70-80% relative humidity.
as §9

[9] = system: Sphaerotheca fuliginea; conditions: 500 ppm of active ingredient; preventive spray on young gherkin plants; evaluated 15 days after inoculation
Description: Example C: In Vivo Preventive Test on Sphaerotheca fuliginea (Powdery Mildew on Cucurbits)
as §6, §7, §8
After 24 hours, the plants are contaminated by spraying the leaves with an aqueous suspension of Sphaerotheca fuliginea spores. The contaminated gherkin plants are incubated for 72 hours at 18° C. and at 100% relative humidity and then for 12 days at 20° C. and at 70-80% relative humidity.
The test is evaluated 15 days after the inoculation.

Row | SMILES | Botrytis cinerea ED50 value in ppm [1] | Septoria tritici ED50 value in ppm [2] | Pyricularia oryzae ED50 value in ppm [3] | Alternaria alternata ED50 value in ppm [4] | efficacy [5] | chromatographic logP [6] | efficacy [7] | efficacy [8] | efficacy [9]
1 | CC1COC(Cn2cncn2)(c2cnc(Oc3ccc(Cl)cc3)cc2Cl)O1 (stereo not drawn) [reference compound] | 8.9 ppm | 0.013 ppm | 9.5 ppm |  |  |  |  |  | 
2 | Clc1ccc(Oc2ccc(C3(Cn4cncn4)OCCO3)c(Cl)n2)cc1 [I.01, 2-chloro-6-(4-chlorophenoxy)-3-[2-(1,2,4-triazol-1-ylmethyl)-1,3-dioxolan-2-yl]pyridine] |  |  | 0.56 ppm | 0.12 ppm | at least 70% | 2.86 | at least 70% | at least 70% | at least 70%
3 | Clc1ccc(Oc2cc(Cl)c(C3(Cn4cncn4)OCCO3)cn2)cc1 [reference compound] |  |  | 1.3 ppm | 0.5 ppm |  |  |  |  | 
4 | CC1COC(Cn2cncn2)(c2ccc(Oc3ccc(Cl)cc3)nc2Cl)O1 (stereo not drawn) [I.02] | 2.7 ppm | 0.008 ppm | 1.2 ppm |  |  |  |  |  | 
